# In ChEMBL document CHEMBL3991601, “The target landscape of clinical kinase drugs” (Science, 2017):
# Calls of active or inactive are those of the source.
# Tests used:
# [1] = biological target: Ribosomal protein S6 kinase beta-1 (Homo sapiens, UniProt P23443)
# Septin-9 = biological target: T1, Septin-9 (Homo sapiens, UniProt Q9UHD8)
# T1 sequence (Q9UHD8 whole entry): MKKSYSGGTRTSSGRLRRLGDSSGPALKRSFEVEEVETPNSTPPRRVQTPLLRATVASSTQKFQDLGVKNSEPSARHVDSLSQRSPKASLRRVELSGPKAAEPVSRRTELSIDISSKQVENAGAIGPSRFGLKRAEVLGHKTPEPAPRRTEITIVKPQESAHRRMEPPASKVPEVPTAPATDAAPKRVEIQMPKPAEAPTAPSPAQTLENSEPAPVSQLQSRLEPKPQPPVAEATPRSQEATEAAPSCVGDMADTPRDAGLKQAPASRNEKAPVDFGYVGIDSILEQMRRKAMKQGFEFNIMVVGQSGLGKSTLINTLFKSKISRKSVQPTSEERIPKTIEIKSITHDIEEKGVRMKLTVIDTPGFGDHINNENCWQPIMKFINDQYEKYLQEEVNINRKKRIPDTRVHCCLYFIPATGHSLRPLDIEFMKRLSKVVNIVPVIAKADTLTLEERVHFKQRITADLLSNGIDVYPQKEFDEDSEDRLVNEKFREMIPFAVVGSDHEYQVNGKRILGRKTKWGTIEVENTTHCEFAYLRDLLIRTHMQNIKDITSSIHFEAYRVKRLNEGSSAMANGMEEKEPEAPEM
# [2] = biological target: Dual specificity mitogen-activated protein kinase kinase 1 (Homo sapiens, UniProt Q02750)
# Sequence of Dual specificity mitogen-activated protein kinase kinase 1 (Q02750 whole entry): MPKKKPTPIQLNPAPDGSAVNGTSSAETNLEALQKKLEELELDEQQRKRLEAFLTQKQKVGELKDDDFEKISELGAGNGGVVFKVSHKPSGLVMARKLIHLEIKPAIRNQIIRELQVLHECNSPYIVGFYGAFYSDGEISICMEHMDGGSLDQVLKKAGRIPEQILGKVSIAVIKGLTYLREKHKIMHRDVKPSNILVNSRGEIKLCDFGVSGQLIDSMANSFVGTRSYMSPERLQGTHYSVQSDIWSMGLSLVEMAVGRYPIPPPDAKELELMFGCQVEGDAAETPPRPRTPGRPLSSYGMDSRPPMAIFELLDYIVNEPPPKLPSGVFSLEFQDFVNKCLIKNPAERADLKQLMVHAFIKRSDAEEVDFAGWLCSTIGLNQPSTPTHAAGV
# Ephrin type-A receptor 7 = Ephrin type-A receptor 7 (Homo sapiens, UniProt Q15375)
# Ephrin type-A receptor 5 = Ephrin type-A receptor 5 (Homo sapiens, UniProt P54756)
# [3] = biological target: Receptor-interacting serine/threonine-protein kinase 3 (Homo sapiens, UniProt Q9Y572)
# Sequence of Receptor-interacting serine/threonine-protein kinase 3 (Q9Y572 whole entry): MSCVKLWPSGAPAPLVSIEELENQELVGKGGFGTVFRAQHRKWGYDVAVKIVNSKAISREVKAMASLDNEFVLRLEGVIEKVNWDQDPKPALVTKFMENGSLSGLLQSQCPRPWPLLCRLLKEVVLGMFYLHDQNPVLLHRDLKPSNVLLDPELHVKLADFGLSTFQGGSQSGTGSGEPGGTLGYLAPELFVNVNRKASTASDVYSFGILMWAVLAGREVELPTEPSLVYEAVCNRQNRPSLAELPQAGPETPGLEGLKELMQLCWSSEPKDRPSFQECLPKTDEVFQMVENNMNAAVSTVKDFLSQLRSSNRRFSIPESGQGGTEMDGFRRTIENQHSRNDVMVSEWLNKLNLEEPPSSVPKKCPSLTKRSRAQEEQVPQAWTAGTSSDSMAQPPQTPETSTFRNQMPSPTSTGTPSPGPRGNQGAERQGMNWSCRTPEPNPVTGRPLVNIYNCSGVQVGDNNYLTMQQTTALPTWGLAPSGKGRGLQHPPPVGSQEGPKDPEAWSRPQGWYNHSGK
# [4] = biological target: T2, Serine/threonine-protein kinase Nek2 (Homo sapiens, UniProt P51955)
# T2 sequence (P51955 whole entry): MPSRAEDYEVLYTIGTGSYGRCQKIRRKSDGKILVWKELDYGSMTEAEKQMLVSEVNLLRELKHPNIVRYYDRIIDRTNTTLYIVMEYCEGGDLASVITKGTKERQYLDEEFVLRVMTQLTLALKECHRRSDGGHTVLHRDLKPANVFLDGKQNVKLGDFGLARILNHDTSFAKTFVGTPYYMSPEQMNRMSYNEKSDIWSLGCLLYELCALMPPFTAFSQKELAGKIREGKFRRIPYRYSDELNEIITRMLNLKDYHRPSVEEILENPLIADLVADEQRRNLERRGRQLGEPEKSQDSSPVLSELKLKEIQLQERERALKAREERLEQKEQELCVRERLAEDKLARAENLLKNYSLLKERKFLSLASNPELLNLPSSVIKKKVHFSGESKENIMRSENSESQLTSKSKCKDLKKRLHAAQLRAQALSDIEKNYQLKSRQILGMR
# [5] = biological target: Inosine-5'-monophosphate dehydrogenase 2 (Homo sapiens, UniProt P12268)
# [6] = biological target: Chromodomain-helicase-DNA-binding protein 4 (Homo sapiens, UniProt Q14839)
# Sequence of Chromodomain-helicase-DNA-binding protein 4 (Q14839 whole entry): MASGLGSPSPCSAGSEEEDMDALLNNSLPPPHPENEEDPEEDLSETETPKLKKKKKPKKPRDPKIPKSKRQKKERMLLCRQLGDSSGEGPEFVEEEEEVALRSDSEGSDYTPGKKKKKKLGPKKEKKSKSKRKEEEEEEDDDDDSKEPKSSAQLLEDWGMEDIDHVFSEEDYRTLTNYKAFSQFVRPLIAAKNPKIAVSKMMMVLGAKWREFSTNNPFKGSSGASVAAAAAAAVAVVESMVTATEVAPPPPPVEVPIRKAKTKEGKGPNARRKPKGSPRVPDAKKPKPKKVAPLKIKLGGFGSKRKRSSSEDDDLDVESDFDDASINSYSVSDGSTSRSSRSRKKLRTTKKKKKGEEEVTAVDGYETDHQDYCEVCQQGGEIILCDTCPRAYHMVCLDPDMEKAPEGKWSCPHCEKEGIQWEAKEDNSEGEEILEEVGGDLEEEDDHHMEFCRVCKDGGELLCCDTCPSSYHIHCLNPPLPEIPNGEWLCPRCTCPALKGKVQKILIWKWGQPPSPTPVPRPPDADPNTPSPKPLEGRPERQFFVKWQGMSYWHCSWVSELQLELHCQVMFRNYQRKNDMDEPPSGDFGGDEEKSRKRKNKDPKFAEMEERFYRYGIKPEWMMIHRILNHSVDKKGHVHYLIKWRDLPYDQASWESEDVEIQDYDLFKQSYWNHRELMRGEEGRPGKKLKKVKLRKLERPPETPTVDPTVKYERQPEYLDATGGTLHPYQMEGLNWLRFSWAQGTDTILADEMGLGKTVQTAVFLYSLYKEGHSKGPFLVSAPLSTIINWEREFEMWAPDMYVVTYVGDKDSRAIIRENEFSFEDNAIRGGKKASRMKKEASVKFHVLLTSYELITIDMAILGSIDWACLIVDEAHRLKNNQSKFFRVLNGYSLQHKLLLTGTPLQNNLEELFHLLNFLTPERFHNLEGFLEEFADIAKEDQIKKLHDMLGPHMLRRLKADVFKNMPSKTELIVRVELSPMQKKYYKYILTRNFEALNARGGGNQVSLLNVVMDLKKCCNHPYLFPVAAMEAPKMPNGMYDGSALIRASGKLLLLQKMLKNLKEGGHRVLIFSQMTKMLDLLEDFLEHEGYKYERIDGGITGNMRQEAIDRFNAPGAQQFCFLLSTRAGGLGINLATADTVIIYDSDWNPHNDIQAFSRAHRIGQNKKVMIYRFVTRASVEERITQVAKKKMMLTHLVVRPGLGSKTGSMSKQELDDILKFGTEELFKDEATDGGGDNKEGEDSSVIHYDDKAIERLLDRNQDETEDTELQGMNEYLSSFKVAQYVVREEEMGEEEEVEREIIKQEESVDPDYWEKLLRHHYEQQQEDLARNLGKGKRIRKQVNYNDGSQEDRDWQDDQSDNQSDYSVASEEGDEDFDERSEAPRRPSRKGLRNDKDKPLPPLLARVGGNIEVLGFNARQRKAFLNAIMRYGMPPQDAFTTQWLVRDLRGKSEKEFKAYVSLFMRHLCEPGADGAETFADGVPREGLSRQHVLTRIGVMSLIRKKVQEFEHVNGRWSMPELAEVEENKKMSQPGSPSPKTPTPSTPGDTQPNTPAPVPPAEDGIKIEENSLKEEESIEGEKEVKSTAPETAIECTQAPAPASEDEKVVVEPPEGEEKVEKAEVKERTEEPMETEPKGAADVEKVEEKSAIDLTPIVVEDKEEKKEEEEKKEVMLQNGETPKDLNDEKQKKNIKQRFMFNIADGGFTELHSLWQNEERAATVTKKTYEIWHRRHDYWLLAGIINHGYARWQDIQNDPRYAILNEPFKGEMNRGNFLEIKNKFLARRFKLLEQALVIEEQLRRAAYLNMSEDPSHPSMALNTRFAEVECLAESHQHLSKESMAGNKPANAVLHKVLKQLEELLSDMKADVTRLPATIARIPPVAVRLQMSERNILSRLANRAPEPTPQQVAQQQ
# [7] = biological target: TRAF2 and NCK-interacting protein kinase (Homo sapiens, UniProt Q9UKE5)
# Sequence of TRAF2 and NCK-interacting protein kinase (Q9UKE5 whole entry): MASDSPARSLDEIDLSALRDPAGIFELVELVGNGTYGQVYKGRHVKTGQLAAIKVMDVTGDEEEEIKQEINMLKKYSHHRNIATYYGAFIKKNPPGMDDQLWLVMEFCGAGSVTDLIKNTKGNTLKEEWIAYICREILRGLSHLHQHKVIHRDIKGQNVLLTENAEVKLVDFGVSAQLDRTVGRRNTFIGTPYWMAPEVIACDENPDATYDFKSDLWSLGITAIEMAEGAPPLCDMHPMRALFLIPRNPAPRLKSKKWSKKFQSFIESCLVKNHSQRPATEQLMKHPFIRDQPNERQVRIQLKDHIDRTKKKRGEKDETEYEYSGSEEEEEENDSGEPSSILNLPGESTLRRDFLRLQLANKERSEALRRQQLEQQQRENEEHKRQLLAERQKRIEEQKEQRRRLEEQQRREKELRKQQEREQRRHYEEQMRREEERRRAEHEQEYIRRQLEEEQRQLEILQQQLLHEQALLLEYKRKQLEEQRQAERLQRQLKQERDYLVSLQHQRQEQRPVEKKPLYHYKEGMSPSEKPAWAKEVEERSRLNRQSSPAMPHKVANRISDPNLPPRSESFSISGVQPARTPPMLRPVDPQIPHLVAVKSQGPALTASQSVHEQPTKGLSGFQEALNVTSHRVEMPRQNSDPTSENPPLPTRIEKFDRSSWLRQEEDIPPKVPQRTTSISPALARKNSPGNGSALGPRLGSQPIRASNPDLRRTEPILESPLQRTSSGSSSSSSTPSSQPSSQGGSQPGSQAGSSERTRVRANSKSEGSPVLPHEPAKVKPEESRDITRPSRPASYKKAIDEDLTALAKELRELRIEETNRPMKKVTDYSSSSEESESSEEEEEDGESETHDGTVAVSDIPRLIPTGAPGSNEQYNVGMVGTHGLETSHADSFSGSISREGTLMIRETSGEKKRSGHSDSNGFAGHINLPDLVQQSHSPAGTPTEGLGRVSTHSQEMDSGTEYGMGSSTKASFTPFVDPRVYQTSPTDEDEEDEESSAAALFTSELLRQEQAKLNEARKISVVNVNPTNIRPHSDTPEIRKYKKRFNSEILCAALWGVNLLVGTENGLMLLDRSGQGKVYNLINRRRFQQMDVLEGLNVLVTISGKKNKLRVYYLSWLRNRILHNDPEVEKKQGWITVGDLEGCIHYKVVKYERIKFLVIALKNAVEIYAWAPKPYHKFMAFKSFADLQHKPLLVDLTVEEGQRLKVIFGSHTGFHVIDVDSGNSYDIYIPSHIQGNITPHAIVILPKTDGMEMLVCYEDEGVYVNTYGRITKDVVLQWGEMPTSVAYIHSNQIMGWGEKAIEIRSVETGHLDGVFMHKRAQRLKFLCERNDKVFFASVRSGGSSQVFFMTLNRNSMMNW
# [8] = biological target: Adenylate kinase 2, mitochondrial (Homo sapiens, UniProt P54819)
# Adenosine kinase = Adenosine kinase (Homo sapiens, UniProt P55263)
# Sequence of Adenosine kinase (P55263 whole entry): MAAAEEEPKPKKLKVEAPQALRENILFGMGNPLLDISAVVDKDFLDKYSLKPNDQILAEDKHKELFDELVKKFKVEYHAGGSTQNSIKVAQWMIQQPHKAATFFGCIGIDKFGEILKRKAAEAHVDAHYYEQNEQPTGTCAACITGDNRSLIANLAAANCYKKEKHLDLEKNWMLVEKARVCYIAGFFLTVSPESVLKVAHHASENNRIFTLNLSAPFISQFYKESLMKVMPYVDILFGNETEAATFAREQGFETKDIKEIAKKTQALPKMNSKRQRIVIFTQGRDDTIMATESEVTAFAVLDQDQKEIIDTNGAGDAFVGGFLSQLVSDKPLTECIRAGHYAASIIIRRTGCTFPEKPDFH
# [9] = biological target: Serine/threonine-protein kinase PAK 2 (Homo sapiens, UniProt Q13177)
# Sequence of Serine/threonine-protein kinase PAK 2 (Q13177 whole entry): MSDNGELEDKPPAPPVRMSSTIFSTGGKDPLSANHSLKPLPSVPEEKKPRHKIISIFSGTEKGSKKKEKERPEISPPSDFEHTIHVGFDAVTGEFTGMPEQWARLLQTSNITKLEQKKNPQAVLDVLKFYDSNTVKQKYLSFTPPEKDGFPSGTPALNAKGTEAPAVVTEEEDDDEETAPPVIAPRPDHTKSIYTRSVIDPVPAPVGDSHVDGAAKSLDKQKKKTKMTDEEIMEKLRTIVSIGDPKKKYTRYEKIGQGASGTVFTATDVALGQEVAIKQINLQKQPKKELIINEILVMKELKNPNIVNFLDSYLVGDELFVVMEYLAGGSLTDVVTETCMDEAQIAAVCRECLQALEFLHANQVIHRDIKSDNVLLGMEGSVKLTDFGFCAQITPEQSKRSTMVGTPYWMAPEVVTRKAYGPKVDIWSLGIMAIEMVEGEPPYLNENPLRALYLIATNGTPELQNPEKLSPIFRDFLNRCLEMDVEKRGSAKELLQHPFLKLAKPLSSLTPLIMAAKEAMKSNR
# [10] = biological target: T3, Serine/threonine-protein kinase Nek1 (Homo sapiens, UniProt Q96PY6)
# T3 sequence (Q96PY6 whole entry): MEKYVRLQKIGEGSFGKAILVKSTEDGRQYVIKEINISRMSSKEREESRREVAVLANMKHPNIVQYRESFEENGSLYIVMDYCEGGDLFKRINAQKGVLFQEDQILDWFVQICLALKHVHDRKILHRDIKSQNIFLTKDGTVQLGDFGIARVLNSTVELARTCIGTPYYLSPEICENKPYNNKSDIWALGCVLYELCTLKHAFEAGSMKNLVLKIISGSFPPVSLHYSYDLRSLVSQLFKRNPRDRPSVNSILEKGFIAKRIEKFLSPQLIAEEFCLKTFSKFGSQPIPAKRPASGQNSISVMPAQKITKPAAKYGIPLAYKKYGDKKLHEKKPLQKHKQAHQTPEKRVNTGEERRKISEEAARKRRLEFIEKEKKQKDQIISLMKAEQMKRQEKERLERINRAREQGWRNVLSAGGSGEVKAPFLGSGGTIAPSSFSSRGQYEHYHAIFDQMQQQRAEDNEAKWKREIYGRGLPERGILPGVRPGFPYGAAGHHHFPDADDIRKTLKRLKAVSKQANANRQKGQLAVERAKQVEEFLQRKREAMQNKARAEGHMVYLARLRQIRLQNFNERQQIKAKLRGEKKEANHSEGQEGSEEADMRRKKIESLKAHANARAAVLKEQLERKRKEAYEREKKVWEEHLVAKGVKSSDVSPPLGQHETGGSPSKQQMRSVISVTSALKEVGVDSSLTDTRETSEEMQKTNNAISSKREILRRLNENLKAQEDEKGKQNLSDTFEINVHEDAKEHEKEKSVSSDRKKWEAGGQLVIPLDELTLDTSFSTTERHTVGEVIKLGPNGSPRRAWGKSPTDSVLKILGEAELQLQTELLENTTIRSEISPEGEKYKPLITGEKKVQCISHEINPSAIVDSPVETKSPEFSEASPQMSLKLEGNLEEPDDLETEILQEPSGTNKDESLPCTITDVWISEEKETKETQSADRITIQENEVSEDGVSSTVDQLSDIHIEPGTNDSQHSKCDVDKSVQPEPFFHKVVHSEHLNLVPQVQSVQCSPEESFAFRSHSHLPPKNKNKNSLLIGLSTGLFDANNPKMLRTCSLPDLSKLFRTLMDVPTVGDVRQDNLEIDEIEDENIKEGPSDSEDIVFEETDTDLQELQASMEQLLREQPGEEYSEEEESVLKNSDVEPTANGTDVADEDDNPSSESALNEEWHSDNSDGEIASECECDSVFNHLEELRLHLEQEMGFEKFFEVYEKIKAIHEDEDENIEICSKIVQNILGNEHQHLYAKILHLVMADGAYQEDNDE
# Further: in the data inactive means no Kd found up to 30 µM.
Structure (SMILES),Kd [1],Kd (Septin-9),Kd [2],Kd (Ephrin type-A receptor 7),Kd (Ephrin type-A receptor 5),Kd [3],Kd [4],Kd [5],Kd [6],Kd [7],Kd [8],Kd (Adenosine kinase),Kd [9],Kd [10]
COc1c(OCCCN2CCOCC2)ccc2c1N=C(NC(=O)c1cnc(N)nc1)N1CCN=C21 [COPANLISIB],> 30 µM (inactive),> 30 µM (inactive),> 30 µM (inactive),> 30 µM (inactive),> 30 µM (inactive),> 30 µM (inactive),> 30 µM (inactive),> 30 µM (inactive),> 30 µM (inactive),> 30 µM (inactive),> 30 µM (inactive),> 30 µM (inactive),> 30 µM (inactive),> 30 µM (inactive)
COCC(=O)NC/C=C/c1ccc2ncnc(Nc3ccc(Oc4ccc(C)nc4)c(C)c3)c2c1 [CP-724714],> 30 µM (inactive),> 30 µM (inactive),> 30 µM (inactive),> 30 µM (inactive),> 30 µM (inactive),> 30 µM (inactive),> 30 µM (inactive),> 30 µM (inactive),> 30 µM (inactive),> 30 µM (inactive),> 30 µM (inactive),> 30 µM (inactive),> 30 µM (inactive),> 30 µM (inactive)
O=C(Nc1nc2cccc(-c3ccc(CN4CCS(=O)(=O)CC4)cc3)n2n1)C1CC1 [FILGOTINIB],> 30 µM (inactive),> 30 µM (inactive),> 30 µM (inactive),> 30 µM (inactive),> 30 µM (inactive),> 30 µM (inactive),> 30 µM (inactive),> 30 µM (inactive),> 30 µM (inactive),> 30 µM (inactive),> 30 µM (inactive),> 30 µM (inactive),> 30 µM (inactive),> 30 µM (inactive)
Cc1cccc(-c2nn3c(c2-c2ccnc4ccc(C(N)=O)cc24)CCC3)n1 [GALUNISERTIB],> 30 µM (inactive),> 30 µM (inactive),> 30 µM (inactive),> 30 µM (inactive),> 30 µM (inactive),0.011 µM (active),> 30 µM (inactive),> 30 µM (inactive),> 30 µM (inactive),1.21 µM,> 30 µM (inactive),> 30 µM (inactive),> 30 µM (inactive),> 30 µM (inactive)
CNC(=O)c1cccc2cc(Oc3ccnc4cc(OCC5(N)CC5)c(OC)cc34)ccc12 [LUCITANIB],> 30 µM (inactive),> 30 µM (inactive),> 30 µM (inactive),> 30 µM (inactive),> 30 µM (inactive),> 30 µM (inactive),> 30 µM (inactive),> 30 µM (inactive),> 30 µM (inactive),> 30 µM (inactive),> 30 µM (inactive),> 30 µM (inactive),> 30 µM (inactive),> 30 µM (inactive)
NC1(c2ccc(-c3nc4ccn5c(=O)[nH]nc5c4cc3-c3ccccc3)cc2)CCC1 [MK-2206],> 30 µM (inactive),> 30 µM (inactive),> 30 µM (inactive),> 30 µM (inactive),> 30 µM (inactive),> 30 µM (inactive),> 30 µM (inactive),> 30 µM (inactive),> 30 µM (inactive),> 30 µM (inactive),> 30 µM (inactive),> 30 µM (inactive),> 30 µM (inactive),> 30 µM (inactive)
CN(C[C@@H]1COCCO1)S(=O)(=O)Nc1ccc2ccc3ncc(-c4cnn(C)c4)cc3c(=O)c2c1 [MK-2461],> 30 µM (inactive),> 30 µM (inactive),> 30 µM (inactive),> 30 µM (inactive),> 30 µM (inactive),> 30 µM (inactive),> 30 µM (inactive),> 30 µM (inactive),> 30 µM (inactive),> 30 µM (inactive),> 30 µM (inactive),> 30 µM (inactive),> 30 µM (inactive),> 30 µM (inactive)
Cn1cc(-c2cnc3ccc4ccc(CS(=O)(=O)NCc5ccccn5)cc4c(=O)c3c2)cn1 [MK-8033],> 30 µM (inactive),> 30 µM (inactive),> 30 µM (inactive),> 30 µM (inactive),> 30 µM (inactive),> 30 µM (inactive),> 30 µM (inactive),> 30 µM (inactive),> 30 µM (inactive),> 30 µM (inactive),> 30 µM (inactive),> 30 µM (inactive),> 30 µM (inactive),> 30 µM (inactive)
COc1ncc(-c2ccc3nccc(-c4ccnnc4)c3c2)cc1NS(=O)(=O)c1ccc(F)cc1F [OMIPALISIB],> 30 µM (inactive),> 30 µM (inactive),> 30 µM (inactive),> 30 µM (inactive),> 30 µM (inactive),> 30 µM (inactive),> 30 µM (inactive),> 30 µM (inactive),> 30 µM (inactive),> 30 µM (inactive),> 30 µM (inactive),> 30 µM (inactive),> 30 µM (inactive),> 30 µM (inactive)
Cc1cnc(NC(=O)Nc2cc(Br)c(C)cc2OC[C@@H]2CNCCO2)cn1 [RABUSERTIB],> 30 µM (inactive),> 30 µM (inactive),> 30 µM (inactive),> 30 µM (inactive),> 30 µM (inactive),> 30 µM (inactive),> 30 µM (inactive),> 30 µM (inactive),> 30 µM (inactive),> 30 µM (inactive),> 30 µM (inactive),> 30 µM (inactive),> 30 µM (inactive),> 30 µM (inactive)
N#CC1(c2ccc(NC(=O)c3cccnc3NCc3ccncc3)cc2)CCCC1 [RIVOCERANIB],> 30 µM (inactive),> 30 µM (inactive),> 30 µM (inactive),> 30 µM (inactive),> 30 µM (inactive),2.37 µM (active),> 30 µM (inactive),> 30 µM (inactive),> 30 µM (inactive),> 30 µM (inactive),> 30 µM (inactive),> 30 µM (inactive),> 30 µM (inactive),> 30 µM (inactive)
